Experimental data: publication PMC9888480, “Carboranyl-1,8-naphthalimide intercalators induce lysosomal membrane permeabilization and ferroptosis in cancer cell lines” (Journal of Enzyme Inhibition and Medicinal Chemistry, 2023)
“Also recorded” adds a separate entry of the source.

How the values were obtained:
[1] = test system: HepG2 cells; experiment: Apoptosis/necrosis assay by flow cytometry (YO-PRO-1/PI); format: cell-based, human; settings: HepG2, 24 h, YO-PRO1/PI; for early apoptotic cells: half and total IC50 concentrations tested
Experimental: Apoptosis/necrosis assay was carried out by double staining of cells with YO-PRO-1 (Thermo Fisher Scientific) and propidium iodide (PI, Sigma-Aldrich) fluorescent dyes. Briefly, HepG2 cells (2 × 10^5) were seeded onto 6-well plates. […] Subsequently, the cells were detached with trypsin (Thermo Fisher Scientific), washed twice with DPBS (1 ml) (Thermo Fisher Scientific), and stained with YO-PRO-1 (0.5 µM) and PI (10 µg/ml) according to the manufacturer’s protocol for 30 min at 37 °C in the dark. Immediately after staining, the cells were analysed with 488 nm excitation using a FACSCalibur flow cytometer (Becton Dickinson), and data were analysed using the FlowJo software (Becton Dickinson).

[2] = test system: ct-DNA; experiment: Melting temperature (Tm) measurements of ct-DNA; format: binding, calf; settings: r = [compound]/[ct-DNA] = 0.3, cacodylate buffer pH 7.0; Tm of free ct-DNA 74 °C; error ±0.5 °C
Experimental: The measurements were carried out by adding aliquots of DMSO stock solution of the tested compounds to the buffer solution (pH 7.0, 20 mM, cacodylate buffer, DMSO content of the final solution = 0.33–0.39%). Tm curves were collected at r = 0.3 (r = [compound]/[ct-DNA]) to assure the dominant binding mode. Thermal melting curves were plotted considering the absorption change at 260 nm as a function of temperature using a GBC Cintra10 UV–VIS spectrometer (Dandenong, Australia) equipped with a GBC Thermocell Peltier Power Supply (Dandenong, Australia) with the use of a 1-cm-path-length cell. The absorbance of the samples was monitored at 260 nm from 35 to 95 °C with a heating rate of 1 °C/min. Tm values are the midpoints or the transition curves determined from the maximum of the first derivative. ΔTm values were calculated by subtracting the Tm of the free nucleic acid from the Tm of the sample. All ΔTm values reported in the study were measured in triplicate. The error in ΔTm was ±0.5 °C.

[3] = test system: ct-DNA; experiment: Circular dichroism (CD) measurements of ct-DNA; format: binding, calf; settings: increasing concentration of conjugate, r = 0.1–0.5, cacodylate buffer pH 7.0
Experimental: The measurements were performed by adding aliquots of DMSO stock solution of the tested compounds to the buffer solution (pH 7.0, 20 mM, cacodylate buffer, DMSO content of the final solutions = 0.22–1.30%). Changes in the CD spectrum of ct-DNA upon the addition of compound were measured at different molar ratios r = [compound]/[ct-DNA]. CD spectra were recorded on a JASCO J-815 CD spectrometer with a JASCO PFD-425S Peltier thermostated cell holder (JASCO, Tokyo, Japan) by using a square quartz cuvette of path length 0.5 cm (0.5 ml) in the 230–400 nm region. The CD profiles reported were an average of three successive scans with a scan time of 200 nm per minute and an appropriately corrected baseline. Temperature was maintained at 20 °C during the experiment.

[4] = test system: HepG2; experiment: In vitro cytotoxic activity, MTT assay; format: cell-based, human; settings: concentration required to inhibit cell growth by 50%
Text: (§1) The in vitro cytotoxic activity of the obtained carborane-1,8-naphthalimide conjugates was investigated by examining their cytotoxic effects using the MTT (3–(4,5-dimethylthiazol-2-yl)-2,5-diphenyltetrazolium bromide) dye assay[38]^,[39] against the human cancer cell line HepG2 established from hepatocellular carcinoma (for compounds 12–19 and 30–37) and against human lung fibroblasts (MRC-5) (for compounds 34–37). The IC50 values—the drug concentration (µM) required to inhibit cell growth by 50%—determined for the synthesised compounds are summarised in Table 2.
(§2) The cytotoxic properties of the synthesised compounds were evaluated using the human hepatocellular carcinoma cell line (HepG2) and human lung fibroblasts (MRC-5). The HepG2 and MRC-5 cell lines were purchased from American Type Culture Collection (ATCC, Manassas, VA, USA). The HepG2 cells were propagated in Eagle’s minimal essential medium (EMEM, ATCC, Manassas, VA, USA), supplemented with 10% inactivated foetal bovine serum (FBS, Life Technologies, Warsaw, Poland) and 100 units/ml penicillin G with […] streptomycin (Life Technologies, Warsaw, Poland). The cells were incubated at 37 °C in a humidified atmosphere containing 5% CO2. Upon reaching 80–90% confluency, the cells were harvested with 0.25% trypsin in 1 mM EDTA (Life Technologies, Warsaw, Poland) and transferred to 96-well microplates at 2 × 10^4 cells/well. After overnight incubation of cells at 37 °C in a humidified atmosphere containing 5% CO2, the culture medium was removed and replaced with a freshly prepared solution of compounds in the culture medium or medium itself as the control group. The stock solutions of each compound were prepared in DMSO at a concentration of 100 mM and were diluted with the growth medium supplemented with 10% FBS to ensure drug dissolution to obtain concentrations ranging from 0.1 to 1000 µM. Cytotoxicity was evaluated using the MTT assay. After incubation with the compounds, the cells were treated with MTT dye solution (5 mg/ml) for 2 h and lysed with a solvent solution containing DMF (45 ml), sodium dodecylsulfate (13.5 g), and distilled water (55 ml). After overnight incubation at 37 °C, optical density at 550 nm, with a reference wavelength of 670 nm, was measured in an ELISA reader (VarioskanLux, Thermo Scientific, Waltham, MA, USA). All determinations were carried out in triplicate. Results were calculated as the percentage of control group viability. The IC50 values of the compounds were calculated in an Excel add-in ED50V10.

[5] = test system: MRC-5; experiment: In vitro cytotoxic activity, MTT assay; format: cell-based, human; settings: concentration required to inhibit cell growth by 50%
Text: as §1, §2

[6] = test system: HepG2 cells; experiment: Real-time cell migration assay (xCELLigence); format: cell-based, human; settings: one-fourth and half of IC50, 24 h pre-treatment
Experimental: Transwell cell migration experiments were performed using an xCELLigence RTCA Analyser (Roche, Switzerland) in CIM plates (ACEA Biosciences, San Diego, CA, USA). Each well consisted of an upper and a lower chamber separated by a microporous polyethylene terephthalate membrane containing randomly distributed 8-µm pores. Prior to the migration assay, the HepG2 cells (2 × 10^4) were seeded onto 48-well plates containing the growth medium (EMEM) and incubated until 70–80% confluency at 37 °C in a humidified atmosphere containing 5% CO2. […] Then, 160 µl of complete growth medium (supplemented with 10% FBS) was added to the lower chamber, and 50 µl of serum-free growth medium was added to the upper chambers of the CIM plate. The plates were incubated at 37 °C under 5% CO2 saturation for 1 h prior to insertion into the xCELLigence platform. To initiate a transwell migration experiment, the cells were detached with trypsin (Corning®), resuspended in the serum-free growth medium, and seeded in the upper chamber at a density of 1 × 10^4 cells in 100 µl per well that was previously treated with the compounds. The impedance of the microelectrode array was monitored and converted to CI. Normalisation values were recorded using the RTCA Software 1.2.1. Readouts were performed every 30 min for 72 h.

Substance	early apoptotic cells [1]	ΔTm ct-DNA [2]	change in the CD spectra of ct-DNA [3]	IC50 [4]	IC50 [5]	effect on migration of HepG2 cells (slope of cell index, first 24 h) [6]	necrosis (PI positive cells) [1]
4-[(6-[(1,2-Dicarba-closo-dodecaborane-1-yl)ethylamino]hexyl)amino]-3-nitro-N-[2-(N-pyrrolidinyl)ethyl]-1,8-naphthalimide [Compound 36]	12.55%	10.00 °C	disturbed	3.63 ± 0.3 µM	2.33 ± 0.02 µM		
4-[(6-[(1,2-Dicarba-closo-dodecaborane-1-yl)ethylamino]hexyl)amino]-N-[2-(dimethylamino)ethyl]-3-nitro-1,8-naphthalimide [Compound 34]	9.12%	11.67 °C	remarkably disturbed	4.78 ± 0.79 µM	2.13 ± 0.23 µM	highest influence on the migration activity	
4-[(6-[(1,7-Dicarba-closo-dodecaborane-1-yl)ethylamino]hexyl)amino]-3-nitro-N-[2-(N-pyrrolidinyl)ethyl]-1,8-naphthalimide [Compound 37]	12.56%	13.00 °C	remarkably disturbed	4.23 ± 0.82 µM	2.26 ± 0.05 µM	highest influence on the migration activity	
4-[(6-[(1,7-Dicarba-closo-dodecaborane-1-yl)ethylamino]hexyl)amino]-N-[2-(dimethylamino)ethyl]-3-nitro-1,8-naphthalimide [Compound 35]	6.7%	13.00 °C	remarkably disturbed	4.32 ± 0.71 µM	2.14 ± 0.36 µM	highest influence on the migration activity; also recorded: highest impairment	55.75%
